Laboratory results from patent publication US4436751A, “Nitrobenzyl monates antibacterial compounds” (Beecham Group Limited, priority 1980, dated 1984).
≈ marks a conversion by molar mass, not a printed value. Read-outs that look alike come from different tables or passages of the source.

Tests used:
Format in all cases: cell-based
[1] = test system: M. suipneumoniae NB12; assay: Anti-mycoplasmal MIC in vitro, Friis broth agarose (Table 1); conditions: Mesomycoplasma hyopneumoniae, NB12, 144 h
[2] = test system: M. suipneumoniae JF 435; assay: as above; conditions: Mesomycoplasma hyopneumoniae, JF435, 144 h; M. suipneumoniae JF 435; in vitro, 6 days 37° C.; read-out: MIC
[3] = test system: M. suipneumoniae HR(2); assay: as above; conditions: Mesomycoplasma hyopneumoniae, 144 h; M. suipneumoniae HR(2); in vitro, 6 days 37° C.; read-out: MIC
[4] = test system: M. suipneumoniae Str. 11; assay: as above; conditions: Mesomycoplasma hyopneumoniae, STR.11, 144 h
[5] = test system: M. suipneumoniae J2206/183b; assay: as above; conditions: Mesomycoplasma hyopneumoniae, 144 h
[6] = test system: M. suipneumoniae MS 16; assay: as above; conditions: Mesomycoplasma hyopneumoniae, MS16, 144 h
[7] = test system: M. suipneumoniae PW/C/210; assay: as above; conditions: Mesomycoplasma hyopneumoniae, 144 h
[8] = test system: M. suipneumoniae OCD 1; assay: as above; conditions: Mesomycoplasma hyopneumoniae, OCD1, 144 h
[9] = test system: M. suipneumoniae TAM 6N; assay: as above; conditions: Mesomycoplasma hyopneumoniae, TAM6N, 144 h; M. suipneumoniae TAM 6N; in vitro, 6 days 37° C.; read-out: MIC
[10] = test system: M. suipneumoniae ATCC 25095; assay: as above; conditions: Mesomycoplasma hyopneumoniae, ATCC25095, 144 h
[11] = test system: M. suipneumoniae NCTC 10110; assay: as above; conditions: Mesomycoplasma hyopneumoniae, NCTC10110, 144 h
[12] = test system: M. hyorhinis ATCC 25021; assay: as above; conditions: Mesomycoplasma hyorhinis, ATCC25021, 144 h
[13] = test system: M. hyosynoviae ATOC 25591; assay: as above; conditions: 144 h
[14] = test system: M. bovis RCTC 10131; assay: microbe, parasite or virus in culture; conditions: RCTC10131, 144 h
[15] = test system: M. bovigenitalium ATOC 14173; assay: Anti-mycoplasmal MIC in vitro, Friis broth agarose (Table 1); conditions: 144 h
[16] = test system: M. dispar RCTC 10125; assay: as above; conditions: 144 h
[17] = test system: Corynebacterium pyogenes CY1; assay: Veterinary bacteria MIC, Diagnostic Sensitivity Test Agar (Table 2); conditions: Trueperella pyogenes
Protocol: (§1) The values were determined using a two fold serial dilutions in Diagnostic Sensitivity Test Agar with an inoculum of 10^4 organisms and incubation for 18 hours at 37° C.

[18] = test system: Erysipelothrix rhusiopathiae NCTC 8163; assay: as above; conditions: NCTC8163; Erysipelothrix rhusiopathiae NCTC 8163; DST Agar, 10^4 organisms, 18 hours 37° C.; read-out: MIC
Protocol: as §1

[19] = test system: Past. haemolytica PA5; assay: as above; conditions: Mannheimia haemolytica
Protocol: as §1

[20] = test system: Past. multocida PA1; assay: as above; conditions: Pasteurella multocida; Past. multocida PA1; DST Agar, 10^4 organisms, 18 hours 37° C.; read-out: MIC
Protocol: as §1

[21] = test system: S. typhimurium S18; assay: as above; conditions: Salmonella enterica; S. typhimurium S18; DST Agar, 10^4 organisms, 18 hours 37° C.; read-out: MIC
Protocol: as §1

[22] = test system: Staph. aureus 152; assay: as above; conditions: Staphylococcus aureus; Staph. aureus 152; DST Agar, 10^4 organisms, 18 hours 37° C.; read-out: MIC
Protocol: as §1

[23] = test system: Strep. agalactiae SPA1; assay: as above; conditions: Streptococcus agalactiae; Strep. agalactiae SPA1; DST Agar, 10^4 organisms, 18 hours 37° C.; read-out: MIC
Protocol: as §1

[24] = test system: E. coli ESS; assay: Human bacteria MIC, nutrient agar with chocolated horse blood (Table 3); conditions: Escherichia coli; E. coli ESS; nutrient agar 5% chocolated horse blood, 18 hours 37° C.; read-out: MIC
Protocol: (§2) The values were determined by serial dilutions in nutrient agar with 5% chocolated horse blood after incubations for 18 hours at 37° C.

[25] = test system: Strep. 641848-C; assay: as above
Protocol: as §2

[26] = test system: Strep. pneumoniae CN33; assay: as above; conditions: Streptococcus pneumoniae; Strep. pneumoniae CN33; nutrient agar 5% chocolated horse blood, 18 hours 37° C.; read-out: MIC
Protocol: as §2

[27] = test system: Neisseria catarrhalis 1502; assay: as above; conditions: Neisseria catarrhalis 1502; nutrient agar 5% chocolated horse blood, 18 hours 37° C.; read-out: MIC
Protocol: as §2

[28] = test system: Strep. 2733-B; assay: as above; conditions: Strep. 2733-B; nutrient agar 5% chocolated horse blood, 18 hours 37° C.; read-out: MIC
Protocol: as §2

SMILES | MIC [1] [µg/mL] | MIC [2] [µg/mL] | MIC [3] [µg/mL] | MIC [4] [µg/mL] | MIC [6] [µg/mL] | MIC [7] [µg/mL] | MIC [9] [µg/mL] | MIC [10] [µg/mL] | MIC [12] [µg/mL] | MIC [14] [µg/mL] | MIC [15] [µg/mL] | MIC [18] [µg/mL] | MIC [20] [µg/mL] | MIC [21] [µg/mL] | MIC [22] [µg/mL] | MIC [23] [µg/mL] | MIC [24] [µg/mL] | MIC [26] [µg/mL] | also measured
C/C(=C\C(=O)OCc1ccc([N+](=O)[O-])cc1)CC1OCC(CC2OC2C(C)C(C)O)C(O)C1O (stereo not drawn) [Example 1, p-nitrobenzyl monate A] | 0.05 (≈ 0.104 µM) | 0.1 (≈ 0.209 µM) | 0.1 (≈ 0.209 µM) | 0.05 (≈ 0.104 µM) | 0.05 (≈ 0.104 µM) | 0.05 (≈ 0.104 µM) | 0.1 (≈ 0.209 µM) | 0.05 (≈ 0.104 µM) | 0.05 (≈ 0.104 µM) | < 0.01 | < 0.01 | 10 (≈ 20.9 µM) | 0.156 (≈ 0.325 µM) | 40 (≈ 83.4 µM) | 0.156 (≈ 0.325 µM) | 0.317 (≈ 0.661 µM) | 0.5 (≈ 1.04 µM) | 0.1 (≈ 0.209 µM) | MIC ([5]; M. suipneumoniae J2206/183b, in vitro, 6 days 37° C., read-out: MIC): 0.1 µg/mL (≈ 0.209 µM); MIC ([8]; M. suipneumoniae OCD 1, in vitro, 6 days 37° C., read-out: MIC): 0.1 µg/mL (≈ 0.209 µM); MIC [11]: 0.05 µg/mL (≈ 0.104 µM); MIC [13]: < 0.01 µg/mL; MIC [16]: 0.025 µg/mL (≈ 0.0521 µM); MIC ([17]; CY1, 18 h): > 80 µg/mL; MIC ([19]; PA5, 18 h): 1.25 µg/mL (≈ 2.61 µM); MIC ([25]; 18 h): 0.25 µg/mL (≈ 0.521 µM)
C/C(=C\C(=O)OC(C)c1ccc([N+](=O)[O-])cc1)CC1OCC(CC2OC2C(C)C(C)O)C(O)C1O (stereo not drawn) [Example 4, 1-(p-nitrophenyl)ethyl monate A] | 1 (≈ 2.03 µM) | 2.5 (≈ 5.07 µM) | 2.5 (≈ 5.07 µM) | 1 (≈ 2.03 µM) | 1 (≈ 2.03 µM) | 1 (≈ 2.03 µM) | 2.5 (≈ 5.07 µM) | 1 (≈ 2.03 µM) | 0.5 (≈ 1.01 µM) | 0.025 (≈ 0.0507 µM) | 0.05 (≈ 0.101 µM) | 40 (≈ 81 µM) | 5 (≈ 10.1 µM) | > 80 | 1.25 (≈ 2.53 µM) | 2.5 (≈ 5.07 µM) | 2.5 (≈ 5.07 µM) | 1 (≈ 2.03 µM) | MIC ([5]; J2206/183B): 1 µg/mL (≈ 2.03 µM); MIC [8]: 1 µg/mL (≈ 2.03 µM); MIC ([11]; M. suipneumoniae NCTC 10110, in vitro, 6 days 37° C., read-out: MIC): 2.5 µg/mL (≈ 5.07 µM); MIC ([13]; M. hyosynoviae ATOC 25591, in vitro, 6 days 37° C., read-out: MIC): 0.1 µg/mL (≈ 0.203 µM); MIC ([16]; M. dispar RCTC 10125, in vitro, 6 days 37° C., read-out: MIC): 0.1 µg/mL (≈ 0.203 µM); MIC ([17]; Corynebacterium pyogenes CY1, DST Agar, 10^4 organisms, 18 hours 37° C., read-out: MIC): > 80 µg/mL; MIC ([19]; Past. haemolytica PA5, DST Agar, 10^4 organisms, 18 hours 37° C., read-out: MIC): 20 µg/mL (≈ 40.5 µM); MIC [27]: 0.5 µg/mL (≈ 1.01 µM); MIC [28]: 1 µg/mL (≈ 2.03 µM); MIC ([25]; Strep. 641848-C, nutrient agar 5% chocolated horse blood, 18 hours 37° C., read-out: MIC): 1 µg/mL (≈ 2.03 µM)
